Converted amounts (≈) assume the structure as drawn.
Experiments:
Spn548 = test: Bacterial susceptibility testing in liquid media, Spn548 MIC; conditions: Streptococcus pneumoniae, 24 h, read-out: Spn548 Mean MIC
Description: (§1) Compounds may be tested for antimicrobial activity by susceptibility testing in liquid media. Compounds may be dissolved in dimethylsulfoxide and tested in 10 doubling dilutions in the susceptibility assays. The organisms used in the assay may be grown overnight on suitable agar media and then suspended in a liquid medium appropriate for the growth of the organism. The suspension can be a 0.5 McFarland and a further 1 in 10 dilution can be made into the same liquid medium to prepare the final organism suspension in 100 μL. Plates can be incubated under appropriate conditions at 37° C. for 24 hrs prior to reading.

Msm. GyrB = target: T1, Msm. GyrB (Mycolicibacterium smegmatis, UniProt A0QNE0); test: Msmegmatis GyrB enzyme assay (ATPase, malachite green phosphate detection); assay type: biochemical; conditions: read-out: Msm_GyrB IC50
T1 construct: 15 nM Msm; GyrB, 650 μM ATP, and compound in dimethyl sulfoxide
Procedure: Compounds may be tested for inhibition of GyrB ATPase activity using an ammonium molybdate/malachite green-based phosphate detection assay (Lanzetta, P. A., L. J. Alvarez, P. S. Reinach, and O. A. Candia, 1979, 100: 95-97; Innova Biosciences malachite green detection kit). Assays can be performed in multi-well plates in 50 μl reactions containing: 50 mM HEPES buffer pH 7.7, 250 mM potassium glutamate, 200 mM potassium chloride, 2 mM magnesium chloride, 2% glycerol, 1 mM 1,4-Dithio-DL-threitol, 0.005% Brij-35, 15 nM Msm. GyrB, 650 μM ATP, and compound in dimethyl sulfoxide. Reactions can be quenched with 12.5 μl of ammonium molybdate/malachite green detection reagent (Pi color lock gold & accelerator mix; Innova Biosciences), followed by the addition of 5 μl of stabilizer (Innova Biosciences) after 5 min of incubation.

Eco-tolC = test: Bacterial susceptibility testing in liquid media, Eco-tolC MIC; conditions: Escherichia coli, read-out: Eco-tolC MIC
Description: as §1

M. tuberculosis = test: Mycobacteria susceptibility testing, Microplate Alamar Blue Assay, Mtu MIC; assay type: cell-based, Mycobacterium tuberculosis (Mtu); conditions: Mycobacterium tuberculosis

T1 sequence (A0QNE0 whole entry): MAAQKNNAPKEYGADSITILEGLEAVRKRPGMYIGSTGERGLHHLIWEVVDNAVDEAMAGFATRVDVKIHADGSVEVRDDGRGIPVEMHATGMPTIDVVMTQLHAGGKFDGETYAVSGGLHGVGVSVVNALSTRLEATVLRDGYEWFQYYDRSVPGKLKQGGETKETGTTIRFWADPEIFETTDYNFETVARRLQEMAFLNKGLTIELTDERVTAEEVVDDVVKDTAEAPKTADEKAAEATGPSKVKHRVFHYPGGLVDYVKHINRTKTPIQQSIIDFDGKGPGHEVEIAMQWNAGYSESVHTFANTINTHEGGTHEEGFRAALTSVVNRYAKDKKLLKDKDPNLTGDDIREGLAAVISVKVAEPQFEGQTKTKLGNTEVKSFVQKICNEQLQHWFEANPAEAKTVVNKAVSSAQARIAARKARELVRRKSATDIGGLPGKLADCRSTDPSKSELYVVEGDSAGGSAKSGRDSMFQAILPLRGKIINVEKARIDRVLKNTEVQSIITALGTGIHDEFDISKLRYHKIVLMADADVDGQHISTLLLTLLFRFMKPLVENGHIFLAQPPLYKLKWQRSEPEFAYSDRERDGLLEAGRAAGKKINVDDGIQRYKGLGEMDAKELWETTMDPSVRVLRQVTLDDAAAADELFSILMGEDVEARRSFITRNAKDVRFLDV

Structure (SMILES) | MIC (Spn548) | IC50 (Msm. GyrB) | MIC (Eco-tolC) | MIC (M. tuberculosis)
C=CCNC(=O)Nc1nc2cc(-c3cncc(C(=O)N(C)C)c3)c(C)nc2s1 [Example 13, 5-[2-(3-Allyl-ureido)-5-methyl-thiazolo[5,4-b]pyridin-6-yl]-N,N-dimethyl-nicotinamide] | 4 µg/mL (≈ 10.1 µM) | 644 nM | > 32 µg/mL | > 32 µg/mL
C=CCNC(=O)Nc1nc2cc(Br)cnc2o1 [Example 14, 1-allyl-3-(6-bromooxazolo[5,4-b]pyridin-2-yl)urea] | 16 µg/mL (≈ 53.9 µM) | 24700 nM | 32 µg/mL (≈ 108 µM) | > 16 µg/mL
C=CCNC(=O)Nc1nc2cc(-c3cccnc3)cnc2o1 [Example 15, 1-allyl-3-(6-(pyridin-3-yl)oxazolo[5,4-b]pyridin-2-yl)urea] | 16 µg/mL (≈ 54.2 µM) | 2000 nM | > 64 µg/mL | > 16 µg/mL
C=CCNC(=O)Nc1nc2cc(-c3cnc(OC)nc3)c(C)nc2o1 [Example 16, 3-allyl-1-[6-(2-methoxypyrimidin-5-yl)-5-methyl-oxazolo[5,4-b]pyridin-2-yl]urea] | 16 µg/mL (≈ 47 µM) | 1610 nM | > 32 µg/mL | > 32 µg/mL
C=CCNC(=O)Nc1nc2cc(-c3cnc(OC)nc3)c(OCCN(C)C)nc2s1 [Example 17, 1-allyl-3-(5-(2-(dimethylamino)ethoxy)-6-(2-methoxypyrimidin-5-yl)thiazolo[5,4-b]pyridin-2-yl)urea] | 16 µg/mL (≈ 37.3 µM) | 216 nM | > 64 µg/mL | > 64 µg/mL
CCNC(=O)Nc1nc2cc(-c3cnc(OC)nc3)cnc2o1 [Example 18, 1-ethyl-3-[6-(2-methoxypyrimidin-5-yl)[1,3]oxazolo[5,4-b]pyridin-2-yl]urea] | > 32 µg/mL | 10900 nM | > 32 µg/mL | > 32 µg/mL
C=CCNC(=O)Nc1nc2cc(-c3cncc(C(=O)NCCCN4CCCC4=O)c3)cnc2s1 [Example 19, N-[3-(2-oxopyrrolidin-1-yl)propyl]-5-{2-[(prop-2-en-1-ylcarbamoyl)amino][1,3]thiazolo[5,4-b]pyridin-6-yl}pyridine-3-carboxamide] | > 32 µg/mL | 297 nM | > 32 µg/mL | 32 µg/mL (≈ 66.7 µM)
C=CCNC(=O)Nc1nc2cc(-c3cnc(OC)nc3)c(OCCN3CCCC3)nc2s1 [Example 20, 1-[6-(2-methoxypyrimidin-5-yl)-5-(2-pyrrolidin-1-ylethoxy)[1,3]thiazolo[5,4-b]pyridin-2-yl]-3-prop-2-en-1-ylurea] | > 32 µg/mL | 259 nM | > 32 µg/mL | > 32 µg/mL
C=CCNC(=O)Nc1nc2cc(-c3cncc(C(=O)NCC4CCOCC4)c3)cnc2s1 [Example 21, 5-{2-[(prop-2-en-1-ylcarbamoyl)amino][1,3]thiazolo[5,4-b]pyridin-6-yl}-N-(tetrahydro-2H-pyran-4-ylmethyl)pyridine-3-carboxamide] | > 32 µg/mL | 236 nM | > 32 µg/mL | > 64 µg/mL
C=CCNC(=O)Nc1nc2cc(-c3cncc(C(=O)NC)c3)cnc2s1 [Example 22, N-methyl-5-{2-[(prop-2-en-1-ylcarbamoyl)amino][1,3]thiazolo[5,4-b]pyridin-6-yl}pyridine-3-carboxamide] | > 32 µg/mL | 323 nM | > 32 µg/mL | > 64 µg/mL
C=CCNC(=O)Nc1nc2cc(-c3cncc(C(=O)NCC)c3)cnc2s1 [Example 23, N-ethyl-5-{2-[(prop-2-en-1-ylcarbamoyl)amino][1,3]thiazolo[5,4-b]pyridin-6-yl}pyridine-3-carboxamide] | > 32 µg/mL | 404 nM | > 32 µg/mL | > 64 µg/mL
C=CCNC(=O)Nc1nc2cc(-c3cncc(C(=O)NCCC(C)C)c3)cnc2s1 [Example 24, N-(3-methylbutyl)-5-{2-[(prop-2-en-1-ylcarbamoyl)amino][1,3]thiazolo[5,4-b]pyridin-6-yl}pyridine-3-carboxamide] | > 32 µg/mL | 583 nM | > 32 µg/mL | > 64 µg/mL
C=CCNC(=O)Nc1nc2cc(-c3cncc(C(=O)N4CCOCC4)c3)cnc2s1 [Example 25, 1-{6-[5-(morpholin-4-ylcarbonyl)pyridin-3-yl][1,3]thiazolo[5,4-b]pyridin-2-yl}-3-prop-2-en-1-ylurea] | > 32 µg/mL | 1440 nM | > 32 µg/mL | > 32 µg/mL
C=CCNC(=O)Nc1nc2cc(-c3cncc(C(=O)NCC(C)C)c3)cnc2s1 [Example 26, N-(2-methylpropyl)-5-{2-[(prop-2-en-1-ylcarbamoyl)amino][1,3]thiazolo[5,4-b]pyridin-6-yl}pyridine-3-carboxamide] | > 32 µg/mL | 394 nM | > 32 µg/mL | > 32 µg/mL
C=CCNC(=O)Nc1nc2cc(-c3cc[nH]n3)c(C)nc2s1 [Example 27, 1-[5-methyl-6-(1H-pyrazol-3-yl)[1,3]thiazolo[5,4-b]pyridin-2-yl]-3-prop-2-en-1-ylurea] | 2 µg/mL (≈ 6.36 µM) | 1840 nM | > 22.6 µg/mL | 11.3 µg/mL (≈ 36 µM)
C=CCNC(=O)Nc1nc2cc(-c3cncnc3)c(OCCOC)nc2s1 [Example 30, 1-[5-(2-methoxyethoxy)-6-pyrimidin-5-yl[1,3]thiazolo[5,4-b]pyridin-2-yl]-3-prop-2-en-1-ylurea] | 0.152 µg/mL (≈ 0.394 µM) | 60.3 nM | 0.609 µg/mL (≈ 1.58 µM) | 2 µg/mL (≈ 5.18 µM)
C=CCNC(=O)Nc1nc2cc(-c3nc(C(=O)O)cs3)cnc2s1 [Example 31, 2-{2-[(prop-2-en-1-ylcarbamoyl)amino][1,3]thiazolo[5,4-b]pyridin-6-yl}-1,3-thiazole-4-carboxylic acid] | > 32 µg/mL | 8940 nM | > 32 µg/mL | > 32 µg/mL
C=CCNC(=O)Nc1nc2cc(-c3cnccn3)cnc2s1 [Example 32, 1-prop-2-en-1-yl-3-(6-pyrazin-2-yl[1,3]thiazolo[5,4-b]pyridin-2-yl)urea] | 32 µg/mL (≈ 102 µM) | 836 nM | > 32 µg/mL | > 32 µg/mL
C=CCNC(=O)Nc1nc2cc(-c3cncnc3)c(OCC(C)C)nc2s1 [Example 33, 1-[5-(2-methylpropoxy)-6-pyrimidin-5-yl[1,3]thiazolo[5,4-b]pyridin-2-yl]-3-prop-2-en-1-ylurea] | 0.0625 µg/mL (≈ 0.163 µM) | 18.4 nM | 1 µg/mL (≈ 2.6 µM) | 1 µg/mL (≈ 2.6 µM)
C=CCNC(=O)Nc1nc2cc(-c3cncnc3)c(OCc3ccccn3)nc2s1 [Example 34, 1-prop-2-en-1-yl-3-[5-(pyridin-2-ylmethoxy)-6-pyrimidin-5-yl[1,3]thiazolo[5,4-b]pyridin-2-yl]urea] | 0.0625 µg/mL (≈ 0.149 µM) | 28.1 nM | 1 µg/mL (≈ 2.38 µM) | 1.41 µg/mL (≈ 3.37 µM)
CCNC(=O)Nc1nc2cc(-c3cncnc3)c(OCCOC(C)C)nc2s1 [Example 35, 1-ethyl-3-{5-[2-(1-methylethoxy)ethoxy]-6-pyrimidin-5-yl[1,3]thiazolo[5,4-b]pyridin-2-yl}urea] | 0.0625 µg/mL (≈ 0.155 µM) | 28 nM | 0.25 µg/mL (≈ 0.621 µM) | 0.354 µg/mL (≈ 0.879 µM)
CCNC(=O)Nc1nc2cc(-c3cncnc3)c(OCCC(C)C)nc2s1 [Example 37, 1-ethyl-3-[5-(3-methylbutoxy)-6-pyrimidin-5-yl[1,3]thiazolo[5,4-b]pyridin-2-yl]urea] | 0.0625 µg/mL (≈ 0.162 µM) | 11.8 nM | 0.25 µg/mL (≈ 0.647 µM) | < 0.25 µg/mL
CCNC(=O)Nc1nc2cc(-c3cncnc3)c(OCCc3scnc3C)nc2s1 [Example 38, 1-ethyl-3-{5-[2-(4-methyl-1,3-thiazol-5-yl)ethoxy]-6-pyrimidin-5-yl[1,3]thiazolo[5,4-b]pyridin-2-yl}urea] | 0.0625 µg/mL (≈ 0.142 µM) | < 5.01 nM | 0.125 µg/mL (≈ 0.283 µM) | 0.281 µg/mL (≈ 0.636 µM)
CCNC(=O)Nc1nc2cc(-c3cncnc3)c(OCC(F)(F)F)nc2s1 [Example 39, 1-ethyl-3-[6-pyrimidin-5-yl-5-(2,2,2-trifluoroethoxy)[1,3]thiazolo[5,4-b]pyridin-2-yl]urea] | 0.0625 µg/mL (≈ 0.157 µM) | < 3.87 nM | 0.354 µg/mL (≈ 0.888 µM) | 0.25 µg/mL (≈ 0.628 µM)
CCNC(=O)Nc1nc2cc(-c3cccnc3)c(OCCOC(C)C)nc2s1 [Example 41, 1-ethyl-3-{5-[2-(1-methylethoxy)ethoxy]-6-pyridin-3-yl[1,3]thiazolo[5,4-b]pyridin-2-yl}urea] | 0.0784 µg/mL (≈ 0.195 µM) | 9.1 nM | 5.02 µg/mL (≈ 12.5 µM) | 2 µg/mL (≈ 4.98 µM)
CCNC(=O)Nc1nc2cc(-c3cncnc3)c(OCC(C)C)nc2s1 [Example 43, 1-ethyl-3-[5-(2-methylpropoxy)-6-pyrimidin-5-yl[1,3]thiazolo[5,4-b]pyridin-2-yl]urea] | 0.0727 µg/mL (≈ 0.195 µM) | 4.39 nM | 0.582 µg/mL (≈ 1.56 µM) | 0.125 µg/mL (≈ 0.336 µM)
CCNC(=O)Nc1nc2cc(-c3cncnc3)c(OCCOCC)nc2s1 [Example 46, 1-[5-(2-ethoxyethoxy)-6-pyrimidin-5-yl[1,3]thiazolo[5,4-b]pyridin-2-yl]-3-ethylurea] | 0.0625 µg/mL (≈ 0.161 µM) | 20 nM | 0.25 µg/mL (≈ 0.644 µM) | 0.125 µg/mL (≈ 0.322 µM)
C=CCOCCOc1nc2sc(NC(=O)NCC)nc2cc1-c1cncnc1 [Example 47, 1-ethyl-3-{5-[2-(prop-2-en-1-yloxy)ethoxy]-6-pyrimidin-5-yl[1,3]thiazolo[5,4-b]pyridin-2-yl}urea] | 0.0625 µg/mL (≈ 0.156 µM) | 17.1 nM | 0.5 µg/mL (≈ 1.25 µM) | 0.125 µg/mL (≈ 0.312 µM)

— patent US20100137303A1, “NEW COMPOUND 255” (AstraZeneca AB, priority 2008, published 2010)
